Experimental data taken from patent US8318781B2, “G-protein-conjugated receptor agonist” (Japan Science and Technology Agency, priority 2007, dated 2012).
Like-named read-outs stand apart in the source and are kept apart here.

Key:
Assay type in all cases: cell-based
human GPR120 (hGPR120) [1] = molecular target: T1, human GPR120 (hGPR120) (Homo sapiens, UniProt Q5NUL3); test: Determination of intracellular Ca2+ concentration (FLIPR), cell line TXGPR120; conditions: for agonistic activity for hGPR120 (in words): cells in which GPR120 has been transgenically expressed; for [Ca^2+]/GPR120 10 μM (ratio vs. LA): relative fluorescence intensity vs LA at 10 μM, TXGPR120 cells; for selectivity between GPR40 and GPR120 (in words), from Tables 3 and 4: GPR40 versus GPR120, Ca2+ and ERK results
T1 construct: expressed in transfected cells; doxycycline-inducible expression vector
T1 sequence (Q5NUL3 1-361): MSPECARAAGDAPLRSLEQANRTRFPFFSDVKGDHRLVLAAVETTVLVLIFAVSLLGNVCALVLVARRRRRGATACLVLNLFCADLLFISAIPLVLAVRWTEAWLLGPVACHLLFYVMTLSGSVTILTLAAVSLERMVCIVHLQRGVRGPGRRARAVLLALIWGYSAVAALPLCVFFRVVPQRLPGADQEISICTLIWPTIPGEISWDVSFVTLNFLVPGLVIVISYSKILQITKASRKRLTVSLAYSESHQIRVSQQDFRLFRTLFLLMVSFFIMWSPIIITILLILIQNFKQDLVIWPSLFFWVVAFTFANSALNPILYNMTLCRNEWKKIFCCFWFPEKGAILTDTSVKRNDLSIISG
Description: (§1) (1) In this test, The cell lines TXGPR40, TXGPR120 and GPR120/Flp-in were plated onto a collagen-coated black 96-well plate in 2×10^5 cells/well. The 96-well plates containing the cells were centrifuged and treated with Doxycycline (final concentration 10 μg/mL), incubated in a CO2 incubator for 21 hours, then used for assay.
(§2) (2) The ligand used in this test includes NCP04, NCP14, NCG20, NCG21, NCG22, NCG23, NCP02, NCP03, NCP05, NCP06, NCG14, NCG17, NCG19, NCG28, NCG29, NCG30, NCG31, NCG34, NCG35, NCG37, NCG38, NCG44, NCG45, NCG46, and NCG54. Each ligand was dissolved in DMSO and adjusted to the concentration of 10 mM, then diluted with Hanks' Balanced Salt Solution (pH 7.4) containing 20 mM HEPES (referred to as FLIPR buffer hereinafter) to the final concentration of 1 to 100 μM. 1% DMSO was used as the negative control, and LA was used as the positive control.
(§3) The ligands and controls were placed in different 96-well plates from the plates for the cells.
(§4) (3) The 96-well plate containing the cells was removed from the CO2 incubator. A fluorescent dye prepared in a twofold higher concentration (Ca Assay Kit Component A diluted with FLIPR Buffer) was added in 50 μL/well, then allowed to stand in the dark at room temperature for one hour.
(§5) (4) After one hour, the 96-well plate containing the cells and the 96-well plate in which ligands and controls were prepared were set on FLIPR (Fluorometric Imaging Plate Reader) for determination.
(§6) (5) Fluorometry using FLIPR was carried out at a laser output of 1.0 W for five minutes. […] after the start of the determination, the ligand (25 μL) was added dropwise to the cell plate at a rate of 50 μL/sec. The intensity of fluorescence was automatically digitized by the application program installed in the FLIPR from the image taken by the CCD camera (with exposure time of 0.40 sec). The interval of data sampling was one second for the initial one minute after the start of operation, and six seconds for the subsequent four minutes.
(§7) (6) The maximum fluorescence intensity was obtained from the data showing the change in the fluorescence intensity over time observed in each well. The maximum fluorescence intensity was plotted against ligand concentration, and pEC50 was calculated. The ratio of the fluorescence intensity for each ligand to LA at 10 μM was calculated as the relative intensity of each ligand.

human GPR40 (hGPR40) [2] = molecular target: T2, human GPR40 (hGPR40) (Homo sapiens, UniProt O14842); test: ERK assay, screening for GPR40 ligands in cell line TXGPR40; conditions: TXGPR40 cells; for ERK/GPR40 10 μM: ligand 10 μM; for ERK/GPR40 10 μM / ERK/GPR40 100 μM: class relative to LA; for ERK/GPR40 100 μM: ligand 100 μM
T2 construct: expressed in transfected cells; doxycycline-inducible expression vector
Description: (§8) This Test 1 was carried out by using the following materials and methods.
(§9) (1) In this test, the cell lines TXGPR40 and TXGPR120 were plated in 35-mm dishes in 5×10^5 cells/per dish.
(§10) Each ligand was dissolved in DMSO, diluted tenfold with the medium to make the total amount of 100 μl. DMSO was used as the negative control, and PMA (phorbol-12-myristate-13-acetate) was used as the positive control.
(§11) (3) The medium was removed from the dish of the cell to reduce the total amount of liquid to 0.9 ml.
(§12) (4) The ligand solution was added dropwise to the cell solution, and dispersed by gently shaking the dish, and allowed to react at room temperature.
(§13) (5) After 5 minutes of reaction, the medium was discarded, and the remaining medium on the dish was removed on ice using an aspirator.
(§14) (6) 150 μl of Lysis buffer (50 mM HEPES (pH 7.0), 150 mM NaCl, 10% glycerol, 1% NonidetP-40, 2 mM MgCl2, 1 mM EDTA, 100 mM NaF, 10 mM sodium phosphate, 1 mM Na3VO4, 20 mM β-glycerophosphate, and Proteinase inhibitor) were added, then the cells were collected using a cell scraper.
(§15) (1) The crude enzyme solution mixed with SDS Sample Buffer was subjected to ultrasonication with a sonifier, then incubated at 90° C. for five minutes.
(§16) (2) The mixture was vortexed and centrifuged at 15,000 rpm for five minutes at 4° C.
(§17) (3) The supernatant of the centrifuged sample was applied to two 7.5% acrylamide gel slabs placed in an electrophoresis tank filled with 1×SDS-PAGE Running Buffer (25 mM Tris, 0.2 M Glycin, and 1% SDS). Electrophoresis was carried out under a constant current of 40 mA for about 80 to 90 minutes.
(§18) (1) A PVDF membrane cut in the same size as the gel slab was immersed in methanol for about 15 seconds and then shaken in Transfer Buffer C solution (25 mM Tris, 0.02% SDS, 2% methanol and 40 mM 6-aminohexanoic acid) at room temperature to swell for 15 minutes. Filter paper for blotting was cut into a 10-cm square.
(§19) (2) On the blotting apparatus were placed sequentially two pieces of filter paper immersed in A solution (0.3 M Tris, 0.02% SDS and 2% methanol), two pieces of filter paper immersed in B solution (25 mM Tris, 0.02% SDS and 2% methanol), and the membrane thereon. The gel slab after electrophoresis, and finally two pieces of filter paper immersed in C solution was placed thereon, and the apparatus was closed.
(§20) (3) The protein was transferred to the membrane at 15 V for 30 minutes.
(§21) (1) The following procedure was all carried out at room temperature. After the protein transfer, the membrane was placed into a vial containing 1×TTBS (0.2 M Tris, 1.5 M NaCl, 0.2% Tween 20) and washed for 15 minutes.
(§22) (2) TTBS was discarded, and about 10 ml of Block Ace was added and blocked on a shaker for one hour.
(§23) (1) The primary antibodies (p44/42 MAP Kinase Antibody and Phospho-p44/42 MAP Kinase Antibody) were each diluted 1000-fold with TTBS.
(§24) (2) After blocking, the Block Ace solution was removed, the solution of the primary antibody was added and allowed to react on the shaker for two hours.
(§25) (1) The secondary antibody (Anti-rabbit Ig, Horseradish Peroxidase linked F(ab′)2 fragments) was diluted 5000-fold with TTBS.
(§26) (2) The primary antibody solution was removed and the membrane was washed three times on the shaker in TTBS for five to ten minutes each.
(§27) (3) TTBS was removed and the solution of secondary antibody was added and left for 1 hour on the shaker.
(§28) (1) 2 ml each of Detection Reagent 1 and Detection Reagent 2 from ECL kit were mixed together on ice.
(§29) (2) The solution of secondary antibody was removed from the membrane reacted with the secondary antibody and then washed three times on the shaker in TTBS for five minutes each.
(§30) (3) The liquid was thoroughly removed from the membrane, which was then placed in a plastic bag, and 2 ml of the Detection Reagent mixture was added per each membrane.
(§31) (4) The membrane was kept in contact with a film in the cassette for one to five minutes, and the film was developed using an automatic developing machine.

human GPR120 (hGPR120) [3] = molecular target: T1, human GPR120 (hGPR120); test: Determination of intracellular Ca2+ concentration (FLIPR), cell line GPR120/Flp-in; conditions: for [Ca^2+]/GPR120/Flp-In 10 μM (ratio vs. LA): relative fluorescence intensity vs LA at 10 μM
Description: as §1, §2, §3, §4, §5, §6, §7

human GPR120 (hGPR120) [4] = molecular target: T1, human GPR120 (hGPR120); test: ERK assay, screening for GPR120 ligands in cell line TXGPR120;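 as to ERK/GPR120 10 μM: signals normalized between DMSO and PMA controls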; conditions: TXGPR120 cells; for ERK activation for GPR120 (in words): FIGS. 5-8; for ERK/GPR120 10 μM: ligand 10 μM; for ERK/GPR120 10 μM / ERK/GPR120 100 μM: class relative to LA; for ERK/GPR120 100 μM: ligand 100 μM
Description: as §8, §9, §10, §11, §12, §13, §14, §15, §16, §17, §18, §19, §20, §21, §22, §23, §24, §25, §26, §27, §28, §29, §30, §31

human GPR40 (hGPR40) [5] = molecular target: T2, human GPR40 (hGPR40); test: Determination of intracellular Ca2+ concentration (FLIPR), cell line TXGPR40; conditions: for agonistic activity for GPR40 (in words): cells in which GPR40 has been transgenically expressed; for [Ca^2+]/GPR40 10 μM (ratio vs. LA): relative fluorescence intensity vs LA at 10 μM
Description: as §1, §2, §3, §4, §5, §6, §7

[6] = GPR120/Flp-in cells, maximum fluorescence intensity vs ligand concentration, read-out: [Ca^2+]/GPR120/Flp-In pEC50 (converted)
[7] = TXGPR40 cells, maximum fluorescence intensity vs ligand concentration, read-out: [Ca^2+]/GPR40 pEC50 (converted)

T2 sequence (O14842 whole entry): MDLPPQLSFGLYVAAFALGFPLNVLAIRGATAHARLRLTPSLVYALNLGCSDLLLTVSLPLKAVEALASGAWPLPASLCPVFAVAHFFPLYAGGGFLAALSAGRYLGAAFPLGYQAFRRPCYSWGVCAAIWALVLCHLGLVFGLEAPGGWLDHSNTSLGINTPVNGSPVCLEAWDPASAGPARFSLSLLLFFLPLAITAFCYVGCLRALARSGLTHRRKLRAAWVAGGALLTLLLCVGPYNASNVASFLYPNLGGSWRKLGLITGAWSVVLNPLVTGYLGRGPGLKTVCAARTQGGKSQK

Compound | agonistic activity for hGPR120 (in words) (human GPR120 (hGPR120) [1]) | ERK activation for GPR40 (in words) (human GPR40 (hGPR40) [2]; FIGS. 1-4) | ERK/GPR40 10 μM (human GPR40 (hGPR40) [2]) | ERK/GPR40 100 μM (human GPR40 (hGPR40) [2]) | EC50 (human GPR120 (hGPR120) [3]) [µM] | [Ca^2+]/GPR120/Flp-In 10 μM (ratio vs. LA) (human GPR120 (hGPR120) [3]; GPR120/Flp-in cells) | ERK activation for GPR120 (in words) (human GPR120 (hGPR120) [4]) | ERK/GPR120 10 μM (human GPR120 (hGPR120) [4]) | ERK/GPR120 100 μM (human GPR120 (hGPR120) [4]) | EC50 (human GPR40 (hGPR40) [5]) [µM] | agonistic activity for GPR40 (in words) (human GPR40 (hGPR40) [5]) | [Ca^2+]/GPR40 10 μM (ratio vs. LA) (human GPR40 (hGPR40) [5]; TXGPR40 cells) | EC50 (human GPR120 (hGPR120) [1]) [µM] | [Ca^2+]/GPR120 10 μM (ratio vs. LA) (human GPR120 (hGPR120) [1]) | EC50 (human GPR120 (hGPR120) [3]; [6]) [µM] | EC50 (human GPR40 (hGPR40) [5]; [7]) [µM] | selectivity between GPR40 and GPR120 (in words), from Tables 3 and 4 (human GPR120 (hGPR120) [1])
CCCCCCN(CCOc1ccc(CCC(=O)O)cc1)c1ccccn1 [NCP06] | exhibit a similar effect | – | – | – | – | – | – | – | – | – | – | – | – | – | – | – | –
O=C(O)CCCc1ccc(OCCN(c2ccccc2)c2ccccc2)cc1 [NCG29] | exhibit a similar effect | strongly activated ERK | ++ (++ denotes 50 to 100% of LA) | +++ (+++ denotes a higher value than LA) | 4.27 | 0.88 | strongly activate ERK | +++ (+++ denotes a higher value than LA) | +++ (+++ denotes a higher value than LA) | 20.9 | showed a specific reactivity | 0.21 | 12 | 0.85 | – | – | –
Cc1ccnc(N(CCOc2ccc(CCCC(=O)O)cc2)c2ccccc2)c1 [NCG34] | exhibit a similar effect | – | + (+ denotes 0 to 100% of LA) | +++ (+++ denotes a higher value than LA) | 6.92 | 0.81 | strongly activate ERK | +++ (+++ denotes a higher value than LA) | +++ (+++ denotes a higher value than LA) | 22.4 | showed a specific reactivity | 0.43 | 28.8 | 0.49 | – | – | –
CCCCN(CCOc1ccc(CCCC(=O)O)cc1)c1ccccn1 [NCG20, 4-{4-[2-(2-butylpyridinylamino)ethoxy]phenyl}butanoic acid] | – | – | – | – | 12.6 | – | – | – | – | 27.5 | – | – | – | – | – | – | –
CCCCN(CCOc1ccc(CCCCC(=O)O)cc1)c1ccccn1 [NCG22, 5-{4-[2-(2-butylpyridinylamino)ethoxy]phenyl}pentanoic acid] | – | – | – | – | – | – | – | – | – | – | – | – | – | – | 19.1 | 20.4 | –
CS(=O)(=O)NC(=O)CCc1ccc(NCc2cccc(Oc3ccccc3)c2)cc1 [NCG19] | exhibit a similar effect | – | ++ (++ denotes 50 to 100% of LA) | – | – | 0.33 | – | – | – | – | showed a specific reactivity | 1.29 | – | 0.04 | 17 | 2.88 | selective agonists for GPR40
O=C(O)CCc1ccc(NCc2cccc3ncccc23)cc1 [NCG14] | exhibit a similar effect | – | ++ (++ denotes 50 to 100% of LA) | – | – | 0.43 | – | – | – | – | showed a specific reactivity | 1.17 | – | 0.00 | 14.8 | – | selective agonists for GPR40
c1ccc(Oc2cccc(CNc3ccc(CCc4nnn[nH]4)cc3)c2)cc1 [NCG17] | exhibit a similar effect | – | ++ (++ denotes 50 to 100% of LA) | – | – | 0.59 | – | – | – | – | showed a specific reactivity | 1.34 | – | 0.00 | 5.89 | 3.39 | selective agonists for GPR40
O=C(O)CCCc1ccc(OCCN(c2cccnc2)c2ccccn2)cc1 [NCG45] | exhibit a similar effect | – | – | – | – | 0.65 | – | + (+ denotes 0 to 100% of LA) | ++ (++ denotes 50 to 100% of LA) | – | – | 0.01 | – | 0.01 | 10 | – | –
